This note sets out measurements from patent US20240131028A1, “CHEMOVACCINATION AGAINST PLASMODIUM INFECTION WITH SELECTIVE PLASMEPSIN X INHIBITORS” (Merck Sharp & Dohme LLC, priority 2021, published 2024).

The test system of this assay is ring stage parasites (Pf). Nature of the assay: Parasite lactate dehydrogenase (LDH) growth assay (Parasite Assay, PfLDH Assay). The assay is classed as cell-based, P. falciparum. The settings on record: Table 3; 72 hours growth, LDH readout; read-out: EC50. The protocol:
The parasite stock was maintained at 4% haematocrit in RPMI-Hepes media buffered with sodium bicarbonate and supplemented with 5% heat inactivated human serum and 0.5% albumax. […] On the day of assay set up, a blood smear of the parasite culture was Giemsa stained and counted. The parasitemia was adjusted to 0.7% rings and the haematocrit was diluted to 2% in RPMI-Hepes media buffered with sodium bicarbonate and supplemented with 5% heat inactivated human serum and 0.5% albumax. 30 μl of diluted parasites are then added into 10 μl of media+compound in pre-prepared Greiner TC assay plates. Parasite assay plates were placed in gassed humidified boxes in single layer and allowed to incubate at 37° C. for 72 hours. After 72 hours growth, assay plates were sealed with parafilm and frozen flat, in single file at −80° C. overnight. On the following day, assay plates were allowed to thaw at room temperature for 4 hours to which an LDH assay was performed to measure parasite growth.
For the compound `CCC1(CC)CC(=O)N(CC2C(C(=O)N[C@H]3C[C@@H](C(F)(F)F)Oc4ccccc43)C2(F)F)C(=N)N1` (single isomer, unassigned) [Example 17A], the EC50 came to 47 nM.
With `CCC1(CC)CC(=O)N(CC2C(C(=O)N[C@H]3C[C@@H](C(F)(F)F)Oc4ccccc43)C2(F)F)C(=N)N1` (single isomer, unassigned) [Example 17B], the EC50 worked out at 20 nM.
To `CCC1(CC)CC(=O)N(C[C@H]2C(C)[C@@H]2C(=O)N[C@H]2CC(C)(C)Oc3ccccc32)C(=N)N1` (single isomer, unassigned) [Example 25A] belongs 84 nM; to `CCC1(CC)CC(=O)N(C[C@H]2C(C)[C@@H]2C(=O)N[C@H]2CC(C)(C)Oc3ccccc32)C(=N)N1` (single isomer, unassigned) [Example 25B], 25 nM; to `CCC1(CC)CC(=O)N(C[C@H]2C(C)[C@@H]2C(=O)N[C@H]2c3ccccc3CC2(C)O)C(=N)N1` (single isomer, unassigned) [Example 29A], 203 nM.
`CCC1(CC)CC(=O)N(C[C@H]2C(C)[C@@H]2C(=O)N[C@H]2c3ccccc3CC2(C)O)C(=N)N1` (single isomer, unassigned) [Example 29B]: the EC50 amounted to 351 nM.
Take `CCC1(CC)CC(=O)N(C[C@H]2C(C)[C@@H]2C(=O)N[C@H]2c3ccccc3CC2(C)O)C(=N)N1` (single isomer, unassigned) [Example 29C]: the EC50 is 113 nM.
With `CCC1(CC)CC(=O)N(C[C@H]2C(C)[C@@H]2C(=O)N[C@@H]2c3ccccc3OC(C)(C)[C@H]2O)C(=N)N1` (single isomer, unassigned) [Example 30A] the figure was 45 nM; with `CCC1(CC)CC(=O)N(C[C@H]2C(C)[C@@H]2C(=O)N[C@@H]2c3ccccc3OC(C)(C)[C@H]2O)C(=N)N1` (single isomer, unassigned) [Example 30B], 7.7 nM.
With `CCC1(CC)CC(=O)N(C[C@H]2C(C)[C@@H]2C(=O)N[C@@H]2c3ccccc3OCC2(C)O)C(=N)N1` (single isomer, unassigned) [Example 35A] the figure was 85 nM.
To `CCC1(CC)CC(=O)N(C[C@H]2C(C)[C@@H]2C(=O)N[C@@H]2c3ccccc3OCC2(C)O)C(=N)N1` (single isomer, unassigned) [Example 35B] belongs 220 nM; to `CC1[C@H](C(c2cccnc2)N2C(=N)NC(C)(C)CC2=O)[C@H]1C(=O)N[C@H]1C[C@H](C(F)(F)F)Oc2ccccc21` (single isomer, unassigned) [Example 54A], 1 nM; to `CC1[C@H](C(c2cccnc2)N2C(=N)NC(C)(C)CC2=O)[C@H]1C(=O)N[C@H]1C[C@H](C(F)(F)F)Oc2ccccc21` (single isomer, unassigned) [Example 54B], 130 nM.
With `CCC1(CC)CC(=O)N(C(c2cccnc2)[C@H]2C(C)[C@@H]2C(=O)N[C@H]2C[C@H](C(F)(F)F)Oc3ccccc32)C(=N)N1` (single isomer, unassigned) [Example 55A], the EC50 was 0.8 nM.
To `CCC1(CC)CC(=O)N(C(c2cccnc2)[C@H]2C(C)[C@@H]2C(=O)N[C@H]2C[C@H](C(F)(F)F)Oc3ccccc32)C(=N)N1` (single isomer, unassigned) [Example 55B] belongs 180 nM.
With `CCC1(C)CC(NC(=O)[C@H]2C[C@@H]2[C@@H](CCOC)N2C(=N)NC(C)(C)CC2=O)c2ccccc2O1` (single isomer, unassigned) [Example 75B] the figure was 7.5 nM.
With `CCC1(C)CC(NC(=O)[C@H]2C[C@@H]2[C@@H](CCOC)N2C(=N)NC(C)(C)CC2=O)c2ccccc2O1` (single isomer, unassigned) [Example 75C] the figure was 7 nM; with `CCC1(C)CC(NC(=O)[C@H]2C[C@@H]2[C@@H](CCOC)N2C(=N)NC(C)(C)CC2=O)c2ccccc2O1` (single isomer, unassigned) [Example 75D], 7 nM; with `CC(C)C1(C)CC(NC(=O)[C@H]2C[C@@H]2CN2C(=N)NC(C)(C)CC2=O)c2ccccc2O1` (single isomer, unassigned) [Example 79B], 275 nM.
Consider `CC(C)C1(C)CC(NC(=O)[C@H]2C[C@@H]2CN2C(=N)NC(C)(C)CC2=O)c2ccccc2O1` (single isomer, unassigned) [Example 79C], for which the EC50 was 289 nM.
On to `COCC[C@H]([C@H]1C[C@@H]1C(=O)NC1CC(C)(C(C)C)Oc2ccccc21)N1C(=N)NC(C)(C)CC1=O` (single isomer, unassigned) [Example 80A], for which the EC50 amounted to 9.4 nM.
To `COCC[C@H]([C@H]1C[C@@H]1C(=O)NC1CC(C)(C(C)C)Oc2ccccc21)N1C(=N)NC(C)(C)CC1=O` (single isomer, unassigned) [Example 80B] belongs 6.6 nM; to `COCC[C@H]([C@H]1C[C@@H]1C(=O)NC1CC(C)(C(C)C)Oc2ccccc21)N1C(=N)NC(C)(C)CC1=O` (single isomer, unassigned) [Example 80C], 14 nM; to `COCC[C@H]([C@H]1C[C@@H]1C(=O)NC1CC(C)(C(C)C)Oc2ccccc21)N1C(=N)NC(C)(C)CC1=O` (single isomer, unassigned) [Example 80D], 21 nM.
With `CC(C)C1(C)CC(NC(=O)[C@H]2C[C@@H]2[C@@H](c2cccnc2)N2C(=N)NC(C)(C)CC2=O)c2ccccc2O1` (single isomer, unassigned) [Example 81A] the figure was 2.7 nM; with `CC(C)C1(C)CC(NC(=O)[C@H]2C[C@@H]2[C@@H](c2cccnc2)N2C(=N)NC(C)(C)CC2=O)c2ccccc2O1` (single isomer, unassigned) [Example 81B], 1 nM.
As to `CC(C)C1(C)CC(NC(=O)[C@H]2C[C@@H]2[C@@H](c2cccnc2)N2C(=N)NC(C)(C)CC2=O)c2ccccc2O1` (single isomer, unassigned) [Example 81C], the EC50 is 0.9 nM.
For the compound `CC(C)C1(C)CC(NC(=O)[C@H]2C[C@@H]2[C@@H](c2cccnc2)N2C(=N)NC(C)(C)CC2=O)c2ccccc2O1` (single isomer, unassigned) [Example 81D], the EC50 is 1.3 nM.
As to `COCC[C@H]([C@H]1C[C@@H]1C(=O)NC1CC(C)(COC)Oc2ccccc21)N1C(=N)NC(C)(C)CC1=O` (single isomer, unassigned) [Example 82A], the EC50 turned out to be 24.4 nM.
For the compound `COCC[C@H]([C@H]1C[C@@H]1C(=O)NC1CC(C)(COC)Oc2ccccc21)N1C(=N)NC(C)(C)CC1=O` (single isomer, unassigned) [Example 82B], the EC50 came out at 57 nM.
In the case of `COCC[C@H]([C@H]1C[C@@H]1C(=O)NC1CC(C)(COC)Oc2ccccc21)N1C(=N)NC(C)(C)CC1=O` (single isomer, unassigned) [Example 82C], the EC50 came to 53 nM.
As for `COCC[C@H]([C@H]1C[C@@H]1C(=O)NC1CC(C)(COC)Oc2ccccc21)N1C(=N)NC(C)(C)CC1=O` (single isomer, unassigned) [Example 82D], the EC50 was found to be 27 nM.
With `CC1(C)CC(=O)N([C@H](c2cccnc2)[C@H]2C[C@@H]2C(=O)NC2CC(C)(C)Oc3ccc(F)cc32)C(=N)N1` (single isomer, unassigned) [Example 98A] the figure was 0.9 nM.
With `CC1(C)CC(=O)N([C@H](c2cccnc2)[C@H]2C[C@@H]2C(=O)NC2CC(C)(C)Oc3ccc(F)cc32)C(=N)N1` (single isomer, unassigned) [Example 98B] the figure was 2.2 nM; with `CC[C@]1(C)CC(=O)N(C(c2cncc(F)c2)[C@H]2C[C@@H]2C(=O)N[C@@H]2c3ccccc3OC(C)(C)C2(C)O)C(=N)N1` (single isomer, unassigned) [Example 103A], 29 nM.
Turning to `CC[C@]1(C)CC(=O)N(C(c2cncc(F)c2)[C@H]2C[C@@H]2C(=O)N[C@@H]2c3ccccc3OC(C)(C)C2(C)O)C(=N)N1` (single isomer, unassigned) [Example 103B], the EC50 came out at 2.1 nM.
With `CC[C@]1(C)CC(=O)N(C(c2cncc(F)c2)[C@H]2C[C@@H]2C(=O)NC2c3ccccc3OC(C(F)(F)F)C2O)C(=N)N1` (single isomer, unassigned) [Example 104A] the figure was 4 nM; with `CC[C@]1(C)CC(=O)N(C(c2cncc(F)c2)[C@H]2C[C@@H]2C(=O)NC2c3ccccc3OC(C(F)(F)F)C2O)C(=N)N1` (single isomer, unassigned) [Example 104B], 22 nM.
To `CCC1(C)CC(NC(=O)[C@H]2C[C@@H]2[C@@H](c2cccnc2)N2C(=N)NC(C)(C)CC2=O)c2ccccc2O1` (single isomer, unassigned) [Example 105A] belongs 0.9 nM; to `CCC1(C)CC(NC(=O)[C@H]2C[C@@H]2[C@@H](c2cccnc2)N2C(=N)NC(C)(C)CC2=O)c2ccccc2O1` (single isomer, unassigned) [Example 105B], 1.8 nM; to `CCC1(C)CC(NC(=O)[C@H]2C[C@@H]2[C@@H](c2cccnc2)N2C(=N)NC(C)(C)CC2=O)c2ccccc2O1` (single isomer, unassigned) [Example 105C], 0.8 nM.
With `CCC1(C)CC(NC(=O)[C@H]2C[C@@H]2[C@@H](c2cccnc2)N2C(=N)NC(C)(C)CC2=O)c2ccccc2O1` (single isomer, unassigned) [Example 105D] the figure was 0.9 nM.

As a reminder, the EC50 is the midpoint of the concentration-response curve.
